Source: publication PMC5754384, “Evaluation of carboxamide-type synthetic cannabinoids as CB1/CB2 receptor agonists: difference between the enantiomers” (Forensic Toxicology, 2017)
Entries after “also recorded” stand apart in the source; their conditions may differ.

Columns and labels:
human CB2 receptor = human CB2 receptor (Homo sapiens, UniProt P34972); assay: [35S]GTPγS binding assay, CB2 receptor agonistic activity; assay type: biochemical; conditions: for Selective index (CB1/CB2): EC50 ratio of the CB1 to CB2; for Human CB2 receptor S/R ratio: EC50 value ratio of an (S)-enantiomer to the corresponding (R)-enantiomer; for EC50: Human CB2 receptor EC50, [35S]GTPγS binding, tested 1 × 10^−11 to 1 × 10^−4 M; for CB2 receptor agonist activity (in words): [35S]GTPγS binding
human CB2 receptor, sequence (P34972 whole entry): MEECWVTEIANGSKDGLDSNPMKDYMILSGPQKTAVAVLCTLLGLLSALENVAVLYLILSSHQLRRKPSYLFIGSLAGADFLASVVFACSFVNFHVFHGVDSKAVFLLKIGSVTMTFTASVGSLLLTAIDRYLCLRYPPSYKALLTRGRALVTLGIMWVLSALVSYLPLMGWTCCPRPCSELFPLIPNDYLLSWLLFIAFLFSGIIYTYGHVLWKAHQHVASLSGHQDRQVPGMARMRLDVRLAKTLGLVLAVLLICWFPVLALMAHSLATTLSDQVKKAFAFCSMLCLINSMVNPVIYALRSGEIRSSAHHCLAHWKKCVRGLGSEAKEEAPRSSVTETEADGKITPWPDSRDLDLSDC
Experimental: (§1) For the evaluation of CB1/CB2 cannabinoid receptor activity, [^35S]GTPγS binding assays were performed. These assays were performed at ADME and Tox. Research Institute, Sekisui Medical Co., Ltd. (Tokai-mura, Ibaraki, Japan).

human CB1 receptor = human CB1 receptor (Homo sapiens, UniProt P21554); assay: [35S]GTPγS binding assay, CB1 receptor agonistic activity; assay type: biochemical; conditions: for Human CB1 receptor S/R ratio: EC50 value ratio of an (S)-enantiomer to the corresponding (R)-enantiomer; for CB1 receptor agonist activity (in words): [35S]GTPγS binding, maximum tested concentration 1.0 × 10^−4 M; for difference in the EC50 levels between the enantiomers to activate the CB1 receptor: (S)-enantiomer lower than (R)-enantiomer
human CB1 receptor, sequence (P21554 whole entry): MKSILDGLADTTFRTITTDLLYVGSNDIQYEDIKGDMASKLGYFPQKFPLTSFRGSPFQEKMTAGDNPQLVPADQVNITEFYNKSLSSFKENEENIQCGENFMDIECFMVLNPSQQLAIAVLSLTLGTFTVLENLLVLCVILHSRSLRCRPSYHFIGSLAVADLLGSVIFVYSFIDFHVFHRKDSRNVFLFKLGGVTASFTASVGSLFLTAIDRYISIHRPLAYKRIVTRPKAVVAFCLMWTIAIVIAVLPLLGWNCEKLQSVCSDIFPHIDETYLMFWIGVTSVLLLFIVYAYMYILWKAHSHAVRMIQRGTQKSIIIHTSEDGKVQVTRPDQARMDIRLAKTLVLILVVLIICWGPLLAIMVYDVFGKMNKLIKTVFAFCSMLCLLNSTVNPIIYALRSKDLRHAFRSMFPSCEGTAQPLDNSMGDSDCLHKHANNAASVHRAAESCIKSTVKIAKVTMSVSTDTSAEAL
Experimental: as §1

| SMILES | Selective index (CB1/CB2) (human CB2 receptor) | Human CB2 receptor S/R ratio (human CB2 receptor) | EC50 (human CB2 receptor) | CB2 receptor agonist activity (in words) (human CB2 receptor) | EC50 (human CB1 receptor) | Human CB1 receptor S/R ratio (human CB1 receptor) | CB1 receptor agonist activity (in words) (human CB1 receptor) | difference in the EC50 levels between the enantiomers to activate the CB1 receptor (human CB1 receptor) | selective index of CB1/CB2 (human CB2 receptor; CB2 over CB1, from EC50 values) |
| --- | --- | --- | --- | --- | --- | --- | --- | --- | --- |
| COC(=O)[C@@H](NC(=O)c1cn(Cc2ccc(F)cc2)c2ccccc12)C(C)(C)C [(S)MDMB-FUBICA, Methyl (S)-2-[1-(4-fluorobenzyl)-1H-indole-3-carboxamido]-3,3-dimethylbutanoate] | 9.08 | 0.35 | 1.07 nM | could activate both of these receptors at nanomolar levels | 9.72 nM | <0.0001 | could activate both of these receptors at nanomolar levels |  |  |
| COC(=O)C(NC(=O)c1cn(Cc2ccc(F)cc2)c2ccccc12)C(C)(C)C (stereo not drawn) [MDMB-FUBICA, methyl 2-[1-(4-fluorobenzyl)-1H-indole-3-carboxamido]-3,3-dimethylbutanoate] |  |  |  |  |  |  |  | more than 10,000 fold |  |
| CCOC(=O)[C@@H](NC(=O)c1nn(Cc2ccc(F)cc2)c2ccccc12)C(C)C [(S)EMB-FUBINACA, Ethyl [1-(4-fluorobenzyl)-1H-indazole-3-carbonyl]-L-valinate] | 0.214 | 2.5 | 2.14 nM |  | 0.458 nM | 0.015 |  |  |  |
| CCOC(=O)[C@H](NC(=O)c1nn(CCCCCF)c2ccccc12)C(C)C [(R)5F-EMB-PINACA, Ethyl [1-(5-fluoropentyl)-1H-indazole-3-carbonyl]-D-valinate] | 21.4 | 4.1 | 1.68 nM |  | 35.9 nM | 0.14 |  |  |  |
| CCOC(=O)[C@@H](NC(=O)c1nn(CCCCCF)c2ccccc12)C(C)C [(S)5F-EMB-PINACA, Ethyl [1-(5-fluoropentyl)-1H-indazole-3-carbonyl]-L-valinate] | 0.718 | 4.1 | 6.91 nM |  | 4.96 nM | 0.14 |  |  |  |
| NC(=O)[C@H](Cc1ccccc1)NC(=O)c1nn(CC2CCCCC2)c2ccccc12 [(S)-N-(1-Amino-1-oxo-3-phenylpropan-2-yl)-1-(cyclohexylmethyl)-1H-indazole-3-carboxamide] | 31.0 | 0.017 | 8.09 nM |  | 251 nM | 0.0074 |  | 134 fold |  |
| CCOC(=O)[C@H](NC(=O)c1nn(Cc2ccc(F)cc2)c2ccccc12)C(C)C [(R)EMB-FUBINACA, Ethyl [1-(4-fluorobenzyl)-1H-indazole-3-carbonyl]-D-valinate] | 35.6 | 2.5 | 0.863 nM |  | 30.7 nM | 0.015 |  |  |  |
| COC(=O)[C@H](NC(=O)c1cn(Cc2ccc(F)cc2)c2ccccc12)C(C)(C)C [(R)MDMB-FUBICA, Methyl (R)-2-[1-(4-fluorobenzyl)-1H-indole-3-carboxamido]-3,3-dimethylbutanoate] | >30,000 | 0.35 | 3.1 nM | function as an agonist of the CB2 receptor; also recorded: functioned only on the CB2 receptor as an agonist | > 100000 nM | <0.0001 | lacks CB1 receptor activity; also recorded: not confirmed; also recorded: no [^35S]GTPγS binding activity |  | more than 3.2 × 10^4 fold |
| CC(C)[C@H](NC(=O)c1nn(Cc2ccccc2F)c2ccccc12)C(N)=O [(S)AB-FUBINACA 2-fluorobenzyl isomer, (S)-N-(1-Amino-3-methyl-1-oxobutan-2-yl)-1-(2-fluorobenzyl)-1H-indazole-3-carboxamide] | 1.20 | 3.9 | 2.44 nM |  | 2.92 nM | 0.21 |  |  |  |
| NC(=O)[C@@H](Cc1ccccc1)NC(=O)c1nn(CC2CCCCC2)c2ccccc12 [(R)-N-(1-Amino-1-oxo-3-phenylpropan-2-yl)-1-(cyclohexylmethyl)-1H-indazole-3-carboxamide] | 68.8 | 0.017 | 490 nM |  | 33700 nM | 0.0074 |  |  |  |
| CC(C)[C@@H](NC(=O)c1nn(Cc2ccccc2F)c2ccccc12)C(N)=O [(R)AB-FUBINACA 2-fluorobenzyl isomer, (R)-N-(1-Amino-3-methyl-1-oxobutan-2-yl)-1-(2-fluorobenzyl)-1H-indazole-3-carboxamide] | 22.5 | 3.9 | 0.627 nM |  | 14.1 nM | 0.21 |  |  |  |
